Measurements taken from patent publication US20250186475A1, “METHODS OF TREATING MEDICAL CONDITIONS USING ISLATRAVIR OR A RELATED COMPOUND” (ROME Therapeutics, Inc., priority 2022, published 2025).
pIC50: −log10 of the molar value.

How the values were obtained:
TE-1 cells = test: Cancer cell viability assay with 3D cell colonies (CellTiter-Glo), TE-1; format: cell-based; details: Homo sapiens, TE-1, 168 h, 7 days
Protocol: (§1) Ovarian cancer cell line SK-OV-3 cells were cultured in McCoy's 5a media containing 10% FBS. Ovarian cancer cell line OVCAR-8 cells were cultured in RPMI media containing 10% FBS. Additional cancer cell lines were cultured in the following media: • Ovarian cancer SW756 cells—L-15 (100% air)+10% FBS • Esophageal cancer TE-1 cells—RPMI-1640+10% FBS • Esophageal cancer KYSE-410 cells—RPMI-1640+5˜10% FBS • Esophageal cancer KYSE-70 cells—RPMI-1640+10% h.i.FBS. • Pharyngeal cancer FaDu cells—MEM+0.01 mM NEAA+10% FBS
(§2) Cell colony formation was tested using a 3D methylcellulose-based CellTiter-Glo (CTG) viability assay (Cat. No: G7573, Promega). Briefly, cells were inoculated into 96-well plates (at 1,500 cells per well) into a solution of 0.65% methylcellulose in growth media and incubated overnight at 37° C. in 5% CO2. The next day, serially diluted test compound (islatravir) or positive control (cisplatin, Cat. No. 6J015A89, Qilu Pharma) were added at the indicated concentrations, and the cells were incubated for 7 days. On day seven, 100 μL of CTG reagent was added, and the plates were incubated at room temperature for 20 min. Luminescence was read on an Envision Multi Label Reader according to manufacturer's instructions. IC50 values were determined using the following calculation: […]

[1] = test system: interferon-stimulated gene (ISG) expression; test: In vivo decitabine challenge model; parameters: species or system C57BL/6 mice; details: islatravir p.o. 0.6, 2.0, 6.0 mg/kg once daily with decitabine i.p. 5 mg/kg, Day 0 to Day 4
Protocol: Twenty 9-11 week old C57BL/6 mice were acclimated to the lab for at least 5 days. Islatravir was prepared in a 0.5% methylcellulose solution for p.o. administration. Decitabine (Sigma) was dissolved in sterile PBS (pH 7.4) and dosed within 30 minutes of preparation of the solution. Doses of both islatravir and decitabine were administered once a day, every day from Day 0 to Day 4. On Day 0, mice were split into four groups of five mice and given their first dose of decitabine (i.p., 5 mg/kg) and compound 23. Dosing groups were: [table] Decitabine and islatravir were administered daily from Day 0 to Day 4. All mice were euthanized 1 hour after the last dose administration on Day 4. Spleens, liver, and terminal colon were collected, along with plasma from each animal. The fold changes in interferon-stimulated gene (ISG) expression was calculated by first normalizing to GAPDH gene using the Delta CT method. The CT (gene of interest)—CT (reference gene) was calculated to generate a delta CT for all samples. The fold change was then calculated by taking the […](Delta CT(control)−Delta CT (experimental). The control in this example was the PBS control animal group. The Taqman duplex assay (Thermo Fisher 4331182 and 4448489) was used according to the manufacturer's instructions to determine levels of GAPDH v. IFIT2.

KYSE-70 cells = test: Cancer cell viability assay with 3D cell colonies (CellTiter-Glo), KYSE-70; format: cell-based; details: Homo sapiens, KYSE-70, 168 h, 7 days
Protocol: as §1, §2

[2] = target: T1, LINE1 reverse transcriptase (Homo sapiens, UniProt O00370); test: Transient artificial-intron Cis LINE1 reporter assay; format: cell-based; details: HEK 293 cells, FLuc/RLuc ratio, read-out: IC50 for inhibition of FLuc luminescence
T1 construct: expressed in transfected cells
Protocol: Intron-disrupted Firefly luciferase (FLuc) expression cassettes were generated as described by Xie, Y. et al. “Characterization of L1 retrotransposition with high-throughput dual-luciferase assays,” Nucleic Acid Res. (2011) Vol. 39, No. 3, e16. In addition, the plasmid contained an intact Renilla luciferase (RLuc) expression cassette on the vector backbone, in order to normalize transfection efficiency and measure potential cell toxicity.
HEK 293 cells were seeded in 96-well plates at 1,000 cells/well in 55 μL and grown for 24 hours. Cells were transfected with FuGeneHD (Promega) following the manufacturer's protocol. Each well received 0.133 ng plasmid, 0.4 μL FuGeneHD reagent, and 4.5 μL GlutaMAX-I-supplemented Opti-MEM I reduced-serum medium (Invitrogen). Cells were simultaneously treated with test compound serially diluted starting at 100 μM in a 3-fold dilution dose response.
Luminescence was measured using the Dual-Glo Luciferase Assay System (Promega) following the manufacturer's instructions. The ratio between FLuc and RLuc gene expression was used to report LINE1 activity.

FaDu cells = test: Cancer cell viability assay with 3D cell colonies (CellTiter-Glo), FaDu; format: cell-based; details: Homo sapiens, FaDu, 168 h, 7 days
Protocol: as §1, §2

T1 sequence (O00370 whole entry, looked up): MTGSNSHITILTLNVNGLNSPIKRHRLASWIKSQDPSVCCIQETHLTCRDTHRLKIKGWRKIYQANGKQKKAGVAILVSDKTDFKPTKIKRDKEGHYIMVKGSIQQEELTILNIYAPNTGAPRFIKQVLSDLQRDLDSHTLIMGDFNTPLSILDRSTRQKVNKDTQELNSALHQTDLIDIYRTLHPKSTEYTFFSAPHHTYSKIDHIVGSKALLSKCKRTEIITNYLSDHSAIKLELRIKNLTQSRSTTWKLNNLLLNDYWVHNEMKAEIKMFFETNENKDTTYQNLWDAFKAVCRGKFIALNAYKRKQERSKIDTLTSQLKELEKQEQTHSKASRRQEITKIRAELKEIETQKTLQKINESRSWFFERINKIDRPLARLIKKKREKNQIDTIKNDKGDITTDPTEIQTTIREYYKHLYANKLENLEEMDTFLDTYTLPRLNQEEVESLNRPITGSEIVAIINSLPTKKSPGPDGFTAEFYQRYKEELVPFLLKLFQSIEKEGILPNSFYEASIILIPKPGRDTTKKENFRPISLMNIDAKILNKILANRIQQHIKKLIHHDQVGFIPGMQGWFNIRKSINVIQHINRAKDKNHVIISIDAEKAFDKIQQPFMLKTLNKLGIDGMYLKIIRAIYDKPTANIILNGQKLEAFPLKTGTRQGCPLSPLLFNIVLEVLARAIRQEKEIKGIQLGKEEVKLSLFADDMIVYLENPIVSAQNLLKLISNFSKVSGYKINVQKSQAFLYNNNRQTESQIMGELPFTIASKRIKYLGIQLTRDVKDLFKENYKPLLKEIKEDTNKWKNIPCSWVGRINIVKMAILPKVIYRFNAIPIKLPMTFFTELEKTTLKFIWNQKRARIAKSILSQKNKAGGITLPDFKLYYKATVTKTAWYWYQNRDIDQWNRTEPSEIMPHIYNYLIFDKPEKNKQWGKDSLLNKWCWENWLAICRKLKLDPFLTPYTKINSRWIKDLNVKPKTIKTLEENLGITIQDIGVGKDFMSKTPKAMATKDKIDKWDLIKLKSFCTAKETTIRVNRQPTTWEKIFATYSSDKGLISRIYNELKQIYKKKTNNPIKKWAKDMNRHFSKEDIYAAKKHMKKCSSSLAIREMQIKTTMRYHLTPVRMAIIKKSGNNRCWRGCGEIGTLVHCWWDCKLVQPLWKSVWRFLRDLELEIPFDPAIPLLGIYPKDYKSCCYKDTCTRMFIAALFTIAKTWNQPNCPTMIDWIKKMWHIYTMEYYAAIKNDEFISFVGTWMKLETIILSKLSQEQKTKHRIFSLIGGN

- IC50 (TE-1 cells): ≤ 10 µM
- IC50 (KYSE-70 cells): 10 to 30 µM
- pIC50 [2]: 7.70
- IC50 (FaDu cells): 10 to 30 µM
Compound: C#C[C@]1(CO)O[C@@H](n2cnc3c(N)nc(F)nc32)C[C@@H]1O [Islatravir, (2R,3S,5R)-5-(6-amino-2-fluoro-9H-purin-9-yl)-2-ethynyl-2-(hydroxymethyl)tetrahydrofuran-3-ol]
- change in ISG response [1]: showed the change in ISG response
